{"source": "paper PMC6917776", "about": "“Discovery of a chemical probe for PRDM9” (Nature Communications, 2019)", "key": {"[1]": {"molecular_target": "T1, SETD2 (Homo sapiens, UniProt Q9BYW2)", "T1 construct": "purchased Structural Genomics Consortium (SGC Toronto) in-house methyltransferase panel", "T1 sequence (Q9BYW2 whole entry)": "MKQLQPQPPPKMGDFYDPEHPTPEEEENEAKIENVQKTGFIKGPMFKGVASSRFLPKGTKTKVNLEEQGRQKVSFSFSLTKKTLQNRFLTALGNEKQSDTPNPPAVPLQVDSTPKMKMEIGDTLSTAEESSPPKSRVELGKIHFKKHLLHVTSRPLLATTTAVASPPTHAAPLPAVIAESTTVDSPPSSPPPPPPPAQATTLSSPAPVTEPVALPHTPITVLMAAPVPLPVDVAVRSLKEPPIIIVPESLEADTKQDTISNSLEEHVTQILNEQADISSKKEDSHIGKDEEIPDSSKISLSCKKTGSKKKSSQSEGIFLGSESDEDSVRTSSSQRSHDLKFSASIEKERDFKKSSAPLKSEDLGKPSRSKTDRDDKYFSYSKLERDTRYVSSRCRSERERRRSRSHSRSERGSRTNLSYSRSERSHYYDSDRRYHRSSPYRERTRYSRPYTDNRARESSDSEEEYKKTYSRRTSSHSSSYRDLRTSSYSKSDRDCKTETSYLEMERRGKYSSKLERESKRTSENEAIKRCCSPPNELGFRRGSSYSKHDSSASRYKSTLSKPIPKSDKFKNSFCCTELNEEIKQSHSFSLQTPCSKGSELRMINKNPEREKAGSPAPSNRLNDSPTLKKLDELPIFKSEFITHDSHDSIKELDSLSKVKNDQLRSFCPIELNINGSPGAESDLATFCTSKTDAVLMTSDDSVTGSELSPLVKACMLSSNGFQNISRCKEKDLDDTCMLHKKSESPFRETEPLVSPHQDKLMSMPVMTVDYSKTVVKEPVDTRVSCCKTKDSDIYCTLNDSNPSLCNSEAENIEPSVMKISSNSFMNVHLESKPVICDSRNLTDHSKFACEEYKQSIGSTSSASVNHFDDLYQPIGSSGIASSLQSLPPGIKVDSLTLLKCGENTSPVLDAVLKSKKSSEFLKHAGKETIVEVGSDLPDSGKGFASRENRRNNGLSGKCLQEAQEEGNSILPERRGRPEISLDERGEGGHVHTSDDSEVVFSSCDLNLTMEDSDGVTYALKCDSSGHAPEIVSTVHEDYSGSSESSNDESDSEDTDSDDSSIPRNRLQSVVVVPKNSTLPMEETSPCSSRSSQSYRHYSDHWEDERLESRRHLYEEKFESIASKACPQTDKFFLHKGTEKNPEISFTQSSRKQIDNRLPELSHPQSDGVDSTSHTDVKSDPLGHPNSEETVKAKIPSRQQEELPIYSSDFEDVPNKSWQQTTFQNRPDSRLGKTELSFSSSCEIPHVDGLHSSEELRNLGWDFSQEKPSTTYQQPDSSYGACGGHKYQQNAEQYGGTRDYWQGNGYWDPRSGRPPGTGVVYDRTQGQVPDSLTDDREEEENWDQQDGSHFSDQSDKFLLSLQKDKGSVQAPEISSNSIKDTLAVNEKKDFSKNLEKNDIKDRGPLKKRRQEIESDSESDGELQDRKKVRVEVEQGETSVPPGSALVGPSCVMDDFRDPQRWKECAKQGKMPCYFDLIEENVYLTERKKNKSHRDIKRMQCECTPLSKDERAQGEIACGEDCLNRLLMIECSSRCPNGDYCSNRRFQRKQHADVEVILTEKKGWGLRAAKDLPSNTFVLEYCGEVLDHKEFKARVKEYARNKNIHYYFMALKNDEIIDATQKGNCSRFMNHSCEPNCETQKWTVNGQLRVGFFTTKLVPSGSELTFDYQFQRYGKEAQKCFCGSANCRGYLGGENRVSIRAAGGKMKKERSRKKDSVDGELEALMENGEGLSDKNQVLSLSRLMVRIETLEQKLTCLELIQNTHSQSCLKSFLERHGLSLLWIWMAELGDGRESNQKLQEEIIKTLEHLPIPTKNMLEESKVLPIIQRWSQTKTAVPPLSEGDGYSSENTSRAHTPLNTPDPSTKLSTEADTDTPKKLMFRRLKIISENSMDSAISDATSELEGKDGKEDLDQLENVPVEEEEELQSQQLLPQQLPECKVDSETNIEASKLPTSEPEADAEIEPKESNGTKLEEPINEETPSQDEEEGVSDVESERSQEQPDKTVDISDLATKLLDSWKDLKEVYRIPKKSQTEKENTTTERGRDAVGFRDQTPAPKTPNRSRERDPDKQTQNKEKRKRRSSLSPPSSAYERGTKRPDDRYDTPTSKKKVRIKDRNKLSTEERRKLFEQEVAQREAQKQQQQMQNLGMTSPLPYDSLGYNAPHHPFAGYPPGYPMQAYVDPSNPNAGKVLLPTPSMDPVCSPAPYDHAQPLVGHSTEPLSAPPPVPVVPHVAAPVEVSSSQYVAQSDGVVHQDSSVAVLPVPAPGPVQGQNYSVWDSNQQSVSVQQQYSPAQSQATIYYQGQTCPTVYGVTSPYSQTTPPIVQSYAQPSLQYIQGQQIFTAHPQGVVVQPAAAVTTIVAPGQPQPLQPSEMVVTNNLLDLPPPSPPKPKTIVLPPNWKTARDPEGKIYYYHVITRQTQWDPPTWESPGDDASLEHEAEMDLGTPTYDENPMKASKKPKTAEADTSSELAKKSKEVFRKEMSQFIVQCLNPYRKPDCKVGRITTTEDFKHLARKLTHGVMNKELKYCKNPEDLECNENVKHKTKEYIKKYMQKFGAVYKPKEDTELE", "assay": "Methyltransferase selectivity assay (SPA)", "type": "biochemical", "description": "Selectivity against methyltransferases were determined as described previously. Details of the assays are described in the supplementary methods.\nMethyltransferase selectivity assay1\nThe effect of chemical probes and negative controls on the methyltransferase activities of protein, DNA and RNA methyltransferases was tested by radiometric assays using 3H-SAM. For proteins such as MLL1 trimeric, MLL3 pentameric, EZH1 (PRC2) pentameric, and EZH2 (PRC2) trimeric complexes, as well as G9a, GLP, SUV39H1, SUV39H2, SUV420H1, SUV420H2, SETD2, SETD8, SETDB1, SETD7, PRMT1, PRMT3, PRMT4, PRMT5/ MEP50 complex, PRMT6, PRMT7, PRMT8, PRMT9, PRDM9, SMYD2, SMYD3, DNMT1, and BCDIN3D the incorporation of a tritium-labeled methyl group into biotinylated substrate was monitored using scintillation proximity assay (SPA). Briefly, a 10 µL reaction containing 3H-SAM and substrate at concentrations close to the apparent Km values for each enzyme (balanced conditions) was prepared. The reactions were quenched with 10 µL of 7.5 M guanidine hydrochloride; 180 µL of 20 mM Tris buffer (pH 8.0) were added, and the mixture was transferred to a 96-well FlashPlate and incubated for 1 h. The counts per minute (CPM) was measured on a TopCount plate reader. The CPM in the absence of compound or enzyme was defined as 100% activity and background (0%), respectively, for each dataset. […]"}, "[2]": {"test_system": "HEK293T cells", "assay": "Cell growth, IncuCyte ZOOM cell number", "type": "cell-based", "conditions": "for HEK293T cell growth (in words): 24 h of treatment; for Cell# - toxocity data, % Control: HEK293T-1day, Figure 6c, technical replicates"}, "[3]": {"test_system": "spermatocytes", "assay": "Testis microinjection, meiotic chromosome spreads (SYCP1/SYCP3 staining)", "type": "in vivo, mouse", "conditions": "wild type mice, 2 µl of 1 µM into both testes at P12, analysed at P15", "description": "Supplementary Figure 14. Comparison of meiotic progression in the presence of MRK -740-NC and MRK-740 treated spermatocytes. Representative images of meiotic chromosome […]\n(c) untreated Prdm9-/- mice are presented. At p12, mice were treated with either MRK -740-NC or MRK-740 or received no treatment. Immunofluoresence co -staining was performed with SYCP1 (green) and SYCP3 (magenta) antibodies to visualize the formation of the synaptonemal […]\nmice treated with MRK-740-NC.\n(1 picture or pasted object on this page, not shown here) […]\nTransgenic mouse lines used in this study\nPrdm9KO 2, mice have been described and were maintained on a C57BL/6 background. Mice were housed under standard conditions, were maintained on a 12- hour light/dark cycle, were fed a standard chow diet containing 6% crude fat, and were treated in compliance with the institutional guidelines for animal care and use. All experimental protocols were approved by the Animal Care and Use Committee of Biological Resource Centre at Biopolis, A*STAR, […]\nTestis microinjection protocol\nSeminiferous tubule microinjection was performed as previously described 3,4. At postnatal day 12 (P12) A small incision was made in the abdomen of the mouse and testes were exposed by pulling the abdominal fat pad. Testis were injected using a micro-capillary pipette injector (made in-house). […]"}, "[4]": {"conditions": "10µM compound, Exp1, Exp2, 10 µM"}}, "note": "Values joined by “and” are separate entries in the source; they are usually repeats but may differ in a detail not shown here. Identical values can stand only once. “Also recorded” adds a separate entry of the source. Like-named read-outs stand apart in the source and are kept apart here.", "data": [{"smiles": "COc1cc(OC)cc(-c2noc(N3CCN(C)C4(CCN(c5ccnc(C)c5)CC4)C3)n2)c1", "note": "[MRK-740]", "values": [{"measurement": "Activity %", "setting": "[1]; 1µM compound, Exp1, Exp2, 1 µM", "value": 96, "unit": "%"}, {"measurement": "activity at 1 µM", "setting": "[1]; 1µM compound, Exp1, Exp2, read-out: Activity %", "value": 97, "unit": "%"}, {"measurement": "Activity %", "setting": "[1]; [4]", "value": 86, "unit": "%"}, {"measurement": "activity at 10 µM", "setting": "[1]; 10µM compound, Exp1, Exp2, read-out: Activity %", "value": 90, "unit": "%"}, {"measurement": "HEK293T cell growth (in words)", "setting": "[2]; 3 µM", "value": "neither compound affected HEK293T cell growth"}, {"measurement": "Cell# - toxocity data, % Control", "setting": "[2]; 1 µM", "value": "89.1325 % Control and 119.658 % Control and 130.764 % Control"}, {"measurement": "Cell# - toxocity data, % Control", "setting": "[2]; 3 µM", "value": "81.2039 % Control and 117.832 % Control and 120.808 % Control"}, {"measurement": "Cell# - toxocity data, % Control", "setting": "[2]; 5 µM", "value": "86.208 % Control and 117.65 % Control and 129.14 % Control"}, {"measurement": "Cell# - toxocity data, % Control", "setting": "[2]; 10 µM", "value": "89.6654 % Control and 116.798 % Control and 107.394 % Control"}, {"measurement": "Meiotic phenotype of spermatocytes, pachytene stage (in words)", "setting": "[3]", "value": "Abnormal synaptonemal complex formation; also recorded: meiotic defects including non-homologous synapsis or failed pairing of chromosomal homologs"}]}, {"smiles": "COc1cc(OC)cc(-c2noc(N3CCN(C)C4(CCN(c5ccccc5)CC4)C3)n2)c1", "note": "[MRK-740-NC]", "values": [{"measurement": "HEK293T cell growth (in words)", "setting": "[2]; 3 µM", "value": "neither compound affected HEK293T cell growth"}, {"measurement": "Cell# - toxocity data, % Control", "setting": "[2]; 1 µM", "value": "113.12 % Control and 118.767 % Control and 86.3705 % Control"}, {"measurement": "Cell# - toxocity data, % Control", "setting": "[2]; 3 µM", "value": "125.539 % Control and 114.582 % Control and 84.3363 % Control"}, {"measurement": "Cell# - toxocity data, % Control", "setting": "[2]; 5 µM", "value": "86.195 % Control and 121.075 % Control and 87.3323 % Control"}, {"measurement": "Cell# - toxocity data, % Control", "setting": "[2]; 10 µM", "value": "76.5766 % Control and 74.1915 % Control and 52.2642 % Control"}, {"measurement": "Meiotic phenotype of spermatocytes, pachytene stage (in words)", "setting": "[3]", "value": "Normal synaptonemal complex formation; also recorded: no overt meiotic defects"}]}, {"smiles": "COc1cc(OC)cc(-c2noc(N3CCN(C)C4(CCN(c5ccccc5)CC4)C3)n2)c1", "note": "[MRK-740 -NC]", "values": [{"measurement": "activity at 1 µM", "setting": "[1]; 1µM compound, Exp1, Exp2", "value": 97, "unit": "%"}, {"measurement": "Activity %", "setting": "[1]; 1µM compound, Exp1, Exp2, 1 µM", "value": 107, "unit": "%"}, {"measurement": "activity at 10 µM", "setting": "[1]; 10µM compound, Exp1, Exp2", "value": 99, "unit": "%"}, {"measurement": "Activity %", "setting": "[1]; [4]", "value": 98, "unit": "%"}]}]}
